The record followed here is the OligoGym collection.

Oligonucleotides are given in HELM: sugar(base)linkage, 5' to 3'; d 2'-deoxyribose, r ribose, m 2'-O-methylribose, p phosphate. ss, as = sense and antisense strand

The series addresses UBE2N. The experiment in a line: reporter assay of Huesken 2005. To be noted: siRNA. (In a reporter assay the amount or activity of a reporter protein is the signal.)
Further: test concentration or dose not given here.

“RNA1{r(A)p.r(A)p.r(G)p.r(U)p.r(G)p.r(G)p.r(U)p.r(C)p.r(C)p.r(C)p.r(C)p.r(A)p.r(G)p.r(C)p.r(A)p.r(C)p.r(U)p.r(G)p.r(C)p.d(T)p.d(T)}|RNA2{r(G)p.r(C)p.r(A)p.r(G)p.r(U)p.r(G)p.r(C)p.r(U)p.r(G)p.r(G)p.r(G)p.r(G)p.r(A)p.r(C)p.r(C)p.r(A)p.r(C)p.r(U)p.r(U)p.d(A)p.d(T)}$$$RNA1{StrandType:ss}|RNA2{StrandType:as}$” gave a normalised inhibition (eCFP-eYFP dual reporter) of 48.2%. For “RNA1{r(U)p.r(A)p.r(G)p.r(A)p.r(G)p.r(C)p.r(A)p.r(U)p.r(G)p.r(G)p.r(A)p.r(C)p.r(U)p.r(A)p.r(G)p.r(G)p.r(C)p.r(U)p.r(A)p.d(T)p.d(T)}|RNA2{r(U)p.r(A)p.r(G)p.r(C)p.r(C)p.r(U)p.r(A)p.r(G)p.r(U)p.r(C)p.r(C)p.r(A)p.r(U)p.r(G)p.r(C)p.r(U)p.r(C)p.r(U)p.r(A)p.d(G)p.d(C)}$$$RNA1{StrandType:ss}|RNA2{StrandType:as}$”, the normalised inhibition (eCFP-eYFP dual reporter) stood at 73.8%.

Substance “RNA1{r(A)p.r(C)p.r(C)p.r(A)p.r(G)p.r(U)p.r(U)p.r(C)p.r(C)p.r(U)p.r(G)p.r(G)p.r(C)p.r(A)p.r(U)p.r(C)p.r(A)p.r(A)p.r(A)p.d(T)p.d(T)}|RNA2{r(U)p.r(U)p.r(U)p.r(G)p.r(A)p.r(U)p.r(G)p.r(C)p.r(C)p.r(A)p.r(G)p.r(G)p.r(A)p.r(A)p.r(C)p.r(U)p.r(G)p.r(G)p.r(U)p.d(T)p.d(C)}$$$RNA1{StrandType:ss}|RNA2{StrandType:as}$” had a normalised inhibition (eCFP-eYFP dual reporter) of 97.4%. As for “RNA1{r(U)p.r(A)p.r(G)p.r(C)p.r(G)p.r(G)p.r(A)p.r(G)p.r(C)p.r(A)p.r(G)p.r(U)p.r(G)p.r(G)p.r(A)p.r(A)p.r(G)p.r(A)p.r(C)p.d(T)p.d(T)}|RNA2{r(G)p.r(U)p.r(C)p.r(U)p.r(U)p.r(C)p.r(C)p.r(A)p.r(C)p.r(U)p.r(G)p.r(C)p.r(U)p.r(C)p.r(C)p.r(G)p.r(C)p.r(U)p.r(A)p.d(C)p.d(A)}$$$RNA1{StrandType:ss}|RNA2{StrandType:as}$”, the figure is 40.2%.

“RNA1{r(A)p.r(A)p.r(A)p.r(C)p.r(U)p.r(U)p.r(G)p.r(A)p.r(A)p.r(C)p.r(U)p.r(A)p.r(U)p.r(U)p.r(C)p.r(C)p.r(U)p.r(U)p.r(C)p.d(T)p.d(T)}|RNA2{r(G)p.r(A)p.r(A)p.r(G)p.r(G)p.r(A)p.r(A)p.r(U)p.r(A)p.r(G)p.r(U)p.r(U)p.r(C)p.r(A)p.r(A)p.r(G)p.r(U)p.r(U)p.r(U)p.d(A)p.d(A)}$$$RNA1{StrandType:ss}|RNA2{StrandType:as}$”: the normalised inhibition (eCFP-eYFP dual reporter) turned out to be 43.6%. Consider “RNA1{r(A)p.r(C)p.r(G)p.r(A)p.r(A)p.r(G)p.r(C)p.r(C)p.r(C)p.r(A)p.r(A)p.r(G)p.r(C)p.r(C)p.r(A)p.r(U)p.r(A)p.r(G)p.r(A)p.d(T)p.d(T)}|RNA2{r(U)p.r(C)p.r(U)p.r(A)p.r(U)p.r(G)p.r(G)p.r(C)p.r(U)p.r(U)p.r(G)p.r(G)p.r(G)p.r(C)p.r(U)p.r(U)p.r(C)p.r(G)p.r(U)p.d(T)p.d(G)}$$$RNA1{StrandType:ss}|RNA2{StrandType:as}$”, for which the normalised inhibition (eCFP-eYFP dual reporter) was 77.5%. Consider “RNA1{r(G)p.r(C)p.r(A)p.r(A)p.r(A)p.r(U)p.r(G)p.r(A)p.r(U)p.r(G)p.r(U)p.r(A)p.r(G)p.r(C)p.r(G)p.r(G)p.r(A)p.r(G)p.r(C)p.d(T)p.d(T)}|RNA2{r(G)p.r(C)p.r(U)p.r(C)p.r(C)p.r(G)p.r(C)p.r(U)p.r(A)p.r(C)p.r(A)p.r(U)p.r(C)p.r(A)p.r(U)p.r(U)p.r(U)p.r(G)p.r(C)p.d(T)p.d(A)}$$$RNA1{StrandType:ss}|RNA2{StrandType:as}$”, for which the normalised inhibition (eCFP-eYFP dual reporter) is 49.8%. Turning to “RNA1{r(G)p.r(U)p.r(G)p.r(G)p.r(U)p.r(C)p.r(A)p.r(U)p.r(U)p.r(G)p.r(C)p.r(U)p.r(G)p.r(G)p.r(C)p.r(C)p.r(C)p.r(U)p.r(C)p.d(T)p.d(T)}|RNA2{r(G)p.r(A)p.r(G)p.r(G)p.r(G)p.r(C)p.r(C)p.r(A)p.r(G)p.r(C)p.r(A)p.r(A)p.r(U)p.r(G)p.r(A)p.r(C)p.r(C)p.r(A)p.r(C)p.d(A)p.d(T)}$$$RNA1{StrandType:ss}|RNA2{StrandType:as}$”, the normalised inhibition (eCFP-eYFP dual reporter) worked out at 54.1%. “RNA1{r(G)p.r(A)p.r(A)p.r(G)p.r(C)p.r(C)p.r(C)p.r(A)p.r(A)p.r(G)p.r(C)p.r(C)p.r(A)p.r(U)p.r(A)p.r(G)p.r(A)p.r(A)p.r(A)p.d(T)p.d(T)}|RNA2{r(U)p.r(U)p.r(U)p.r(C)p.r(U)p.r(A)p.r(U)p.r(G)p.r(G)p.r(C)p.r(U)p.r(U)p.r(G)p.r(G)p.r(G)p.r(C)p.r(U)p.r(U)p.r(C)p.d(G)p.d(T)}$$$RNA1{StrandType:ss}|RNA2{StrandType:as}$”: the normalised inhibition (eCFP-eYFP dual reporter) was 90.3%. “RNA1{r(G)p.r(A)p.r(U)p.r(C)p.r(C)p.r(A)p.r(U)p.r(U)p.r(A)p.r(G)p.r(C)p.r(A)p.r(A)p.r(A)p.r(U)p.r(G)p.r(A)p.r(U)p.r(G)p.d(T)p.d(T)}|RNA2{r(C)p.r(A)p.r(U)p.r(C)p.r(A)p.r(U)p.r(U)p.r(U)p.r(G)p.r(C)p.r(U)p.r(A)p.r(A)p.r(U)p.r(G)p.r(G)p.r(A)p.r(U)p.r(C)p.d(A)p.d(T)}$$$RNA1{StrandType:ss}|RNA2{StrandType:as}$”: the normalised inhibition (eCFP-eYFP dual reporter) stood at 61.3%. “RNA1{r(U)p.r(A)p.r(U)p.r(U)p.r(C)p.r(C)p.r(U)p.r(U)p.r(C)p.r(C)p.r(A)p.r(G)p.r(A)p.r(A)p.r(G)p.r(A)p.r(A)p.r(U)p.r(A)p.d(T)p.d(T)}|RNA2{r(U)p.r(A)p.r(U)p.r(U)p.r(C)p.r(U)p.r(U)p.r(C)p.r(U)p.r(G)p.r(G)p.r(A)p.r(A)p.r(G)p.r(G)p.r(A)p.r(A)p.r(U)p.r(A)p.d(G)p.d(T)}$$$RNA1{StrandType:ss}|RNA2{StrandType:as}$” registered a normalised inhibition (eCFP-eYFP dual reporter) of 83%. In the case of “RNA1{r(C)p.r(A)p.r(U)p.r(C)p.r(A)p.r(A)p.r(A)p.r(G)p.r(C)p.r(C)p.r(G)p.r(A)p.r(A)p.r(C)p.r(C)p.r(A)p.r(G)p.r(A)p.r(U)p.d(T)p.d(T)}|RNA2{r(A)p.r(U)p.r(C)p.r(U)p.r(G)p.r(G)p.r(U)p.r(U)p.r(C)p.r(G)p.r(G)p.r(C)p.r(U)p.r(U)p.r(U)p.r(G)p.r(A)p.r(U)p.r(G)p.d(C)p.d(C)}$$$RNA1{StrandType:ss}|RNA2{StrandType:as}$”, the normalised inhibition (eCFP-eYFP dual reporter) turned out to be 84.7%.

With “RNA1{r(C)p.r(U)p.r(C)p.r(C)p.r(C)p.r(A)p.r(A)p.r(U)p.r(C)p.r(C)p.r(A)p.r(G)p.r(A)p.r(U)p.r(G)p.r(A)p.r(U)p.r(C)p.r(C)p.d(T)p.d(T)}|RNA2{r(G)p.r(G)p.r(A)p.r(U)p.r(C)p.r(A)p.r(U)p.r(C)p.r(U)p.r(G)p.r(G)p.r(A)p.r(U)p.r(U)p.r(G)p.r(G)p.r(G)p.r(A)p.r(G)p.d(C)p.d(A)}$$$RNA1{StrandType:ss}|RNA2{StrandType:as}$”, the normalised inhibition (eCFP-eYFP dual reporter) stood at 58.7%. For the substance “RNA1{r(U)p.r(U)p.r(G)p.r(G)p.r(G)p.r(A)p.r(A)p.r(G)p.r(A)p.r(A)p.r(U)p.r(A)p.r(U)p.r(G)p.r(U)p.r(C)p.r(U)p.r(A)p.r(G)p.d(T)p.d(T)}|RNA2{r(C)p.r(U)p.r(A)p.r(G)p.r(A)p.r(C)p.r(A)p.r(U)p.r(A)p.r(U)p.r(U)p.r(C)p.r(U)p.r(U)p.r(C)p.r(C)p.r(C)p.r(A)p.r(A)p.d(C)p.d(T)}$$$RNA1{StrandType:ss}|RNA2{StrandType:as}$”, the normalised inhibition (eCFP-eYFP dual reporter) was determined as 52.8%. Substance “RNA1{r(U)p.r(U)p.r(C)p.r(A)p.r(U)p.r(G)p.r(U)p.r(G)p.r(G)p.r(U)p.r(C)p.r(A)p.r(U)p.r(U)p.r(G)p.r(C)p.r(U)p.r(G)p.r(G)p.d(T)p.d(T)}|RNA2{r(C)p.r(C)p.r(A)p.r(G)p.r(C)p.r(A)p.r(A)p.r(U)p.r(G)p.r(A)p.r(C)p.r(C)p.r(A)p.r(C)p.r(A)p.r(U)p.r(G)p.r(A)p.r(A)p.d(A)p.d(A)}$$$RNA1{StrandType:ss}|RNA2{StrandType:as}$” yielded a normalised inhibition (eCFP-eYFP dual reporter) of 39.5%. As for “RNA1{r(C)p.r(A)p.r(A)p.r(C)p.r(G)p.r(A)p.r(A)p.r(G)p.r(C)p.r(C)p.r(C)p.r(A)p.r(A)p.r(G)p.r(C)p.r(C)p.r(A)p.r(U)p.r(A)p.d(T)p.d(T)}|RNA2{r(U)p.r(A)p.r(U)p.r(G)p.r(G)p.r(C)p.r(U)p.r(U)p.r(G)p.r(G)p.r(G)p.r(C)p.r(U)p.r(U)p.r(C)p.r(G)p.r(U)p.r(U)p.r(G)p.d(G)p.d(T)}$$$RNA1{StrandType:ss}|RNA2{StrandType:as}$”, the figure is 94%; as for “RNA1{r(C)p.r(C)p.r(U)p.r(A)p.r(A)p.r(U)p.r(G)p.r(U)p.r(A)p.r(G)p.r(A)p.r(C)p.r(A)p.r(A)p.r(G)p.r(U)p.r(U)p.r(G)p.r(G)p.d(T)p.d(T)}|RNA2{r(C)p.r(C)p.r(A)p.r(A)p.r(C)p.r(U)p.r(U)p.r(G)p.r(U)p.r(C)p.r(U)p.r(A)p.r(C)p.r(A)p.r(U)p.r(U)p.r(A)p.r(G)p.r(G)p.d(A)p.d(T)}$$$RNA1{StrandType:ss}|RNA2{StrandType:as}$”, 69.4%; as for “RNA1{r(G)p.r(C)p.r(C)p.r(G)p.r(A)p.r(A)p.r(C)p.r(C)p.r(A)p.r(G)p.r(A)p.r(U)p.r(G)p.r(A)p.r(G)p.r(A)p.r(G)p.r(C)p.r(A)p.d(T)p.d(T)}|RNA2{r(U)p.r(G)p.r(C)p.r(U)p.r(C)p.r(U)p.r(C)p.r(A)p.r(U)p.r(C)p.r(U)p.r(G)p.r(G)p.r(U)p.r(U)p.r(C)p.r(G)p.r(G)p.r(C)p.d(T)p.d(T)}$$$RNA1{StrandType:ss}|RNA2{StrandType:as}$”, 82.6%. Substance “RNA1{r(U)p.r(U)p.r(U)p.r(U)p.r(G)p.r(A)p.r(A)p.r(A)p.r(G)p.r(A)p.r(U)p.r(A)p.r(A)p.r(G)p.r(U)p.r(G)p.r(G)p.r(U)p.r(C)p.d(T)p.d(T)}|RNA2{r(G)p.r(A)p.r(C)p.r(C)p.r(A)p.r(C)p.r(U)p.r(U)p.r(A)p.r(U)p.r(C)p.r(U)p.r(U)p.r(U)p.r(C)p.r(A)p.r(A)p.r(A)p.r(A)p.d(T)p.d(A)}$$$RNA1{StrandType:ss}|RNA2{StrandType:as}$” gave a normalised inhibition (eCFP-eYFP dual reporter) of 35.5%. “RNA1{r(U)p.r(C)p.r(C)p.r(G)p.r(C)p.r(A)p.r(C)p.r(A)p.r(G)p.r(U)p.r(U)p.r(C)p.r(U)p.r(G)p.r(C)p.r(U)p.r(A)p.r(U)p.r(C)p.d(T)p.d(T)}|RNA2{r(G)p.r(A)p.r(U)p.r(A)p.r(G)p.r(C)p.r(A)p.r(G)p.r(A)p.r(A)p.r(C)p.r(U)p.r(G)p.r(U)p.r(G)p.r(C)p.r(G)p.r(G)p.r(A)p.d(T)p.d(C)}$$$RNA1{StrandType:ss}|RNA2{StrandType:as}$” gave a normalised inhibition (eCFP-eYFP dual reporter) of 63.5%.
